ChEMBL document CHEMBL1127650, “Investigation of the active site of aminopeptidase A using a series of new thiol-containing inhibitors” (J Med Chem, 1994)

Assays:
[1] = tested on: Glutamyl aminopeptidase (Oryctolagus cuniculus); test: Inhibition of aminopeptidase A (APA) at 0.4 mM
Aminopeptidase B = Aminopeptidase B (Homo sapiens, UniProt Q9H4A4); test: Inhibition of arginylaminopeptidase (aminopeptidase B); design: species or system Oryctolagus cuniculus
Chain of Aminopeptidase B (Q9H4A4 whole entry): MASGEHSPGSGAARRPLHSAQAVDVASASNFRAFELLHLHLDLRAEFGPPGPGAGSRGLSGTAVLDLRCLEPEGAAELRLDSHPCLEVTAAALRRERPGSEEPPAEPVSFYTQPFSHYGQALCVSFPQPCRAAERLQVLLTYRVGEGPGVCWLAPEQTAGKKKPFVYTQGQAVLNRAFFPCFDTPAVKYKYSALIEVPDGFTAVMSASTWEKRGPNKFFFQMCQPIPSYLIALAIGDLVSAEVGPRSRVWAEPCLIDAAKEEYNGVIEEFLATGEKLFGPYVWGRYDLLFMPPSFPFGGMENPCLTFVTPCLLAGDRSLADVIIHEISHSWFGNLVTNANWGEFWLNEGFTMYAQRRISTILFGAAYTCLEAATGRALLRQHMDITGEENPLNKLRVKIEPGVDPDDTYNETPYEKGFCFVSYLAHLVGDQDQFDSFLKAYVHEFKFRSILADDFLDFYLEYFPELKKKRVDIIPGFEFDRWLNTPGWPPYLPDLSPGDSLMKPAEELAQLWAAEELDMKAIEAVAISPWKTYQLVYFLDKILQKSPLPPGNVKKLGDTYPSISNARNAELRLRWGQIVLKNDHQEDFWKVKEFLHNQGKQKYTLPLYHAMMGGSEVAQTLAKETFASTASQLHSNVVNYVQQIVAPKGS

Row | Compound | inhibition [1] [%] | Ki (Aminopeptidase B) [nM]
1 | NC(CC(=O)O)Cc1ccccc1 (centres undefined) | 0 | 
2 | NCCCCC(S)C(=O)O (centres undefined) |  | 0.9
3 | NC(Cc1ccccc1)CP(=O)(O)O (centres undefined) | 13 | 
4 | NC(CC(=O)NO)Cc1ccccc1 (centres undefined) | 0 | 
